Measurements taken from patent publication US5278045A, “Method and compositions to screen compounds for enhancement of the cholinergic, dopaminergic and serotonergic function” (Du Pont Merck Pharmaceutical Company, priority 1990, dated 1994).

Columns and labels:
[1] = tested on: Alzheimer's patients; conditions: clinical trials with cholinesterase inhibitors, literature; cited from earlier work
[2] = tested on: ACh release; assay: Neurotransmitter release assay: stimulated ACh release from brain slices; parameters: species or system rat; conditions: concentration to enhance stimulated release of ACh by 100% (2-fold) over control, from dose response curves
Method: Male Wistar rats weighing 175-200 g were euthanatized and the brains were dissected out immediately. Slices (0.3 mm thick) from the parietal cortex were prepared manually by using a recessed Lucite® guide. Slices (1.5 mm thick) from the hippocampus and the caudate nucleus were prepared by using a slotted brain holder. All slices were subsequently cut into 0.25×0.25 mm squares with a McIlwain tissue chopper.
Labeling of transmitter stores in slices was prepared by the following methods. For ACh release, slices (approximately 100 mg wet weight) were incubated in 10 ml Krebs-Ringer (KR) medium containing (mM): NaCl(116), KCl(3), CaCl2 (1.3), MgCl2 (1.2), KH2 PO4 (1.2), Na2 SO4 (1.2), NaHCO3 (25) and glucose(11), to which 10 μCi ^3 H-choline (specific activity approx. 80 Ci/mmol: NEN) and 10 nmol unlabeled choline had been added to give a final concentration of 10^-6 M. Incubation was carried out for 30 min at 37° C. under a steady flow of 95% O2 /5% CO2. Under these conditions, part of the radioactive choline taken up is converted into radioactive ACh by cholinergic nerve endings, stored in synaptic vesicles, and released upon depolarization by high-K^+ -containing medium [Molenaar et al., 1973a]. For dopamine (DA), serotonin (5-HT), and norepinephrine (NE) release, slices (approximately 100 mg wet weight) were incubated in KR medium containing 0.01 mM nialamide at 37° C. under a steady flow of 95% O2 /5% CO2. The MAO-inhibitor nialamide was added to the medium in order to inhibit metabolism to the monoamines. Incubation was for 30 min in 10 ml of KR medium to which 10 μCi ^3 H-dopamine, ^3 H-norepinephrine, or ^3 H-5-hydroxytryptamine (specific activity 30, 45, and 78 Ci/mmol, respectively: all from NEN) had been added.
Separate experiments were performed for the release of each neurotransmitter. After labeling of the transmitter stores, the slices were washed three times with non-radioactive KR medium and transferred to a superfusion apparatus to measure the drug effects on transmitter release [Schoemaker et al., Psychopharmacology 74, 137 (1981)]. The superfusion apparatus consisted of 10 thermo-jacketed glass columns of 5 mm diameter which were provided with GF/F glass fiber filters to support the brain slices (approximately 10 mg tissue/column). Superfusion was carried out with KR medium at a rate of 0.3 ml/min. For ACh release, 10^-5 M hemicholinium-3 was added to the medium to prevent the uptake of choline formed during superfusion from phospholipids and released ACh, so that it could not be subsequently converted into newly synthesized ACh, which would be released in preference to the pre-formed, labeled ACh. The medium was delivered by a 25-channel peristaltic pump (Ismatec; Brinkman) and maintained at 37° C. by a thermostated stainless-steel heating coil before entering the superfusion column. Each column was provided with a four-way slider valve (Beckman Instruments) which allowed rapid change of low-to-high-K^+ -KR-medium and with two 10-channel, 3-way valves which were used to change form drug-free to drug-containing low- and high-K^+ -KR media.
After 15 min washout of non-specifically bound radioactivity during superfusion, the collection of fractions of 4 min (1.2 ml) each was started. After 3×4 min, the KR medium was changed to a KR medium with 25 mM KCl (ACh, 5-HT release) or 12.5 mM KCl (DA release) (high K^+ -KR medium; S1). Depolarization-induced stimulation of release by high-K^+ -KR medium was then substituted by drug- or vehicle-containing low- and high-K^+ -KR medium and superfusion continued for 3×4 min with low-K^+ -KR medium, for 1×4 min with high-K^+ -KR medium (S2), and for 2×4 min with low-K^+ -KR medium.
Compounds were added to the medium by 100-fold dilution of appropriate stock solutions (in 0.9% NaCl/H2 O) with either low- or high-K^+ -KR medium.
All superfusion fractions were collected in liquid scintillation counting vials.

[3] = molecular target: DuP 996 binding protein; assay: Radioreceptor screening assay (displacement of tritiated DuP 996); parameters: species or system rat; conditions: inhibition of binding of 10 nM tritiated DuP 996, pH 7.4, 25° C., 60 minutes
Method: Male Sprague-Dawley rats (Charles River Breeding Laboratories) at 200-250 g were euthanatized by decapitation. Rat brain regions were dissected according to Heffner et al., Pharmacol. Biochem. Behav., 13, 453 (1980). Brain membranes were prepared by the method of Tam, Proc. Natl. Acad. Sci. USA, 80, 6703 (1983). The brain tissues were homogenized (20 sec) in 10 vol (wt/vol) of ice-cold 0.32M sucrose with a Brinkman Polytron (setting 8). The homogenate was centrifuged at 920×g for 10 min at 4° C. The supernatant was centrifuged at 47,000×g for 20 min. The resulting membrane pellet was resuspended in 10 vol (original wt/vol) of 50 mM Tris-HCl (pH 7.4) and incubated at 37° C. for 30 min to degrade and dissociate bound endogenous ligands. The membranes were then centrifuged at 47,000×g for 20 min and resuspended in 50 mM Tris-HCl.
Compounds to be screened were incubated with brain membranes. (1-2 mg protein) in 50 mM Tris-HCl buffer, pH 7.4, for 10 minutes in 25° C. Then 10 nM tritiated DuP 996 or its active structural analogs were added and incubated at 25° C. for 60 minutes. The samples were filtered on Whatman GF/B glass filters which had been soaked in 0.2% polyethylenimine and washed 3 times each with 5 ml of ice-cold Tris buffer. Nonspecific binding was determined by performing binding in the presence of 10 μM DuP 996. The control represents specific binding in the absence of compounds to be screened. Screened compounds which inhibited the specific binding of tritiated DuP 996 or analogs to its binding protein should be active in binding to the same protein. This is illustrated further in Example 4, Part B.

[4] = tested on: DuP 996 binding protein; assay: Trypsin pretreatment, binding of tritiated DuP 996; parameters: species or system rat; conditions: 0.1-100 μg/ml trypsin, 25° C., 10 min
Method: (§1) One ml aliquots of brain membranes (1-2 mg of protein) in 50 mM Tris-HCl buffer, pH 7.4, were incubated with 0.1-100 μg/ml of trypsin (17,000 BAEE units/mg protein) at 25° C. for 10 min. 10 nM of tritiated DuP 996 was added and incubated for 45 min at 25° C. for ten minutes. Samples were filtered on Whatman GF/B filters which had been presoaked in 0.2% polyethylenimine under negative pressure and washed 3 times with ice-cold buffer. Nonspecific binding was determined in the presence of 10 μM DuP 996.

[5] = tested on: Detergent Solubilized Rat Brain Membrane Proteins; assay: Specific [^3 H]DuP 996 binding to detergent solubilized rat brain membrane proteins; conditions: 10 nM tritiated DuP 996
Method: […] The mixture was centrifuged at 47,000×g for 20 minutes. The supernatant containing the solubilized protein was collected. The supernatant from centrifugation of brain membranes without detergent was used as the control.
Fifty μl aliquots of the solubilized membrane protein were incubated with 0.2 ml of 50 mM Tris-HCl, pH 7.4, with 0.1% bovine serum albumin, and 10 nM tritiated DuP 996 in a total volume of 0.325 ml. Nonspecific binding was determined in the presence of 10 μM DuP 996. After 1 hour of incubation at 25° C., 0.5 ml of ice-cold 0.1M sodium phosphate buffer, pH 7.4, with 0.1% bovine gamma globulin was added. The sample was put on ice and then 0.5 ml of 25% (w/v) polyethylene glycol 8000 was added and mixed. The sample was put on ice for 10 to 15 minutes and filtered through Whatman GF/B filters which had been presoaked in 0.2% polyethylenimine. The filtered sample was washed twice with 3 ml each of ice cold 8% polyethylene glycol 8000 in 100 mM Tris-HCl, pH 7.4. Bound radioactivity retained on the filters was counted in a liquid scintillation counter.

[6] = tested on: DuP 996 binding protein; assay: Phospholipase C pretreatment, binding of tritiated DuP 996; parameters: species or system rat; conditions: 5-50 μg/ml phospholipase C, 10 min, 37° C.
Method: as §1, with “5-50” for “0.1-100”, “phospholipase C” for “trypsin (17,000 BAEE units/mg protein) at 25° C.”, “min at 37° C.” for “min.”, “C.” for “C. for ten minutes.”

Compound | ACh Release EC100 [2] | IC50 [3] [nM] | further results
CNC(=O)Oc1ccc2c(c1)[C@]1(C)CCN(C)[C@@H]1N2C [physostigmine] |  |  | cognitive measures in Alzheimer's patients [1]: limited improvement in cognitive measures
CC(=O)c1ccc2c(c1)C(Cc1ccncc1)(Cc1ccncc1)c1ccccc1-2 [Compound 1, 1-[9,9-Bis(4-pyridinylmethyl)-9H-fluoren-2-yl]-ethanone] | 170 nM | 20 | 
CN1CCC(CC2(CC3CCN(C)CC3)C(=O)N(c3ccccc3)c3ccccc32)CC1 [Compound 25, 3,3-Bis(1-methyl-4-piperidinylmethyl)-1,3-dihydro-1-phenyl-2H-indol-2-one] | 1,200,000 nM | 970000 | 
O=C1c2c(Cl)cccc2C(Cc2ccncc2)(Cc2ccncc2)c2cccc(Cl)c21 [Compound 3, 10,10-Bis-(4-pyridinylmethyl)-1,8-dichloro-9(10H)-anthracenone] | 170 nM | 32 | 
O=C1N(c2ccccc2)c2ccccc2C1(Cc1ccncc1)Cc1ccncc1 [Compound 7, 3,3-Bis(4-pyridinylmethyl)-1-phenylindolin-2-one] |  | 56 | tritiated DuP 996 binding activity after trypsin preincubation [4]: loss of tritiated DuP 996 binding activity; SPECIFIC BINDING ([5]; CHAPS, 20 mM): 868 dpm; SPECIFIC BINDING ([5]; NP40): 348 dpm; SPECIFIC BINDING ([5]; Octyl glucoside, 0.4%): 511 dpm; SPECIFIC BINDING ([5]; Triton X-100, 1%): 0 dpm; SPECIFIC BINDING ([5]; Tween 80, 1%): 134 dpm; DuP 996 binding activity after preincubation with phospholipase C [6]: no effect on the DuP 996 binding activity
O=C1N2c3ccccc3CCc3cccc(c32)C1(Cc1ccncc1)Cc1ccncc1 [Compound 5, 2,2-Bis(4-pyridinylmethyl)-6,7-dihydro-indole(1,7-AB)(1)-benzapin-1(2H)-one] | 2,500 nM | 46 | 
